How the values were obtained:
[1] = target: T1, Alpha-2B adrenergic receptor (Homo sapiens, UniProt P18089)
T1 sequence (P18089 whole entry): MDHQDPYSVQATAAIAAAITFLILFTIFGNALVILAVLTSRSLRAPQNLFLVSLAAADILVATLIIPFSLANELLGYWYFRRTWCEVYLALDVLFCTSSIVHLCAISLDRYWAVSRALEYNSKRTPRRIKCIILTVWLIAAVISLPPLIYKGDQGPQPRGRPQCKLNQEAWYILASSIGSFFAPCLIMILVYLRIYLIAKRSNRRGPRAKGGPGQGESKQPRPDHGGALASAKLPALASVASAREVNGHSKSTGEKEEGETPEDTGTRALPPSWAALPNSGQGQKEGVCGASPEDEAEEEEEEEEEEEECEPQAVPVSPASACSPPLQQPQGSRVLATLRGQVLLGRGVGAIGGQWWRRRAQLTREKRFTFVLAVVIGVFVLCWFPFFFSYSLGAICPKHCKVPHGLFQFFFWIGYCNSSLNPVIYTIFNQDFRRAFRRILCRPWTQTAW

[2] = target: Beta-2 adrenergic receptor (Homo sapiens, UniProt P07550)
Sequence of Beta-2 adrenergic receptor (P07550 whole entry): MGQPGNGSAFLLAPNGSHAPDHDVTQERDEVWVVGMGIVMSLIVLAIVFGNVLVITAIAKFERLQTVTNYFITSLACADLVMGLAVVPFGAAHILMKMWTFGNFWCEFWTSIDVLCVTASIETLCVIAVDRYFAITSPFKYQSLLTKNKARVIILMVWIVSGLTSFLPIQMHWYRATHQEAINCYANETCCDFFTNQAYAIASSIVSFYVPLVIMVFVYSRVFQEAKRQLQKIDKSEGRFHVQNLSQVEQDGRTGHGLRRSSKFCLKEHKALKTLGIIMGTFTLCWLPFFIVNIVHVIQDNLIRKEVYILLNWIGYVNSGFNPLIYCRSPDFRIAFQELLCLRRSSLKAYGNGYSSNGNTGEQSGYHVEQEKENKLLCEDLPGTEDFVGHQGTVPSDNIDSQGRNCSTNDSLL

[3] = target: Voltage-dependent L-type calcium channel subunit alpha-1C (Rattus norvegicus, UniProt P22002); assay type: functional
Sequence of Voltage-dependent L-type calcium channel subunit alpha-1C (P22002 whole entry): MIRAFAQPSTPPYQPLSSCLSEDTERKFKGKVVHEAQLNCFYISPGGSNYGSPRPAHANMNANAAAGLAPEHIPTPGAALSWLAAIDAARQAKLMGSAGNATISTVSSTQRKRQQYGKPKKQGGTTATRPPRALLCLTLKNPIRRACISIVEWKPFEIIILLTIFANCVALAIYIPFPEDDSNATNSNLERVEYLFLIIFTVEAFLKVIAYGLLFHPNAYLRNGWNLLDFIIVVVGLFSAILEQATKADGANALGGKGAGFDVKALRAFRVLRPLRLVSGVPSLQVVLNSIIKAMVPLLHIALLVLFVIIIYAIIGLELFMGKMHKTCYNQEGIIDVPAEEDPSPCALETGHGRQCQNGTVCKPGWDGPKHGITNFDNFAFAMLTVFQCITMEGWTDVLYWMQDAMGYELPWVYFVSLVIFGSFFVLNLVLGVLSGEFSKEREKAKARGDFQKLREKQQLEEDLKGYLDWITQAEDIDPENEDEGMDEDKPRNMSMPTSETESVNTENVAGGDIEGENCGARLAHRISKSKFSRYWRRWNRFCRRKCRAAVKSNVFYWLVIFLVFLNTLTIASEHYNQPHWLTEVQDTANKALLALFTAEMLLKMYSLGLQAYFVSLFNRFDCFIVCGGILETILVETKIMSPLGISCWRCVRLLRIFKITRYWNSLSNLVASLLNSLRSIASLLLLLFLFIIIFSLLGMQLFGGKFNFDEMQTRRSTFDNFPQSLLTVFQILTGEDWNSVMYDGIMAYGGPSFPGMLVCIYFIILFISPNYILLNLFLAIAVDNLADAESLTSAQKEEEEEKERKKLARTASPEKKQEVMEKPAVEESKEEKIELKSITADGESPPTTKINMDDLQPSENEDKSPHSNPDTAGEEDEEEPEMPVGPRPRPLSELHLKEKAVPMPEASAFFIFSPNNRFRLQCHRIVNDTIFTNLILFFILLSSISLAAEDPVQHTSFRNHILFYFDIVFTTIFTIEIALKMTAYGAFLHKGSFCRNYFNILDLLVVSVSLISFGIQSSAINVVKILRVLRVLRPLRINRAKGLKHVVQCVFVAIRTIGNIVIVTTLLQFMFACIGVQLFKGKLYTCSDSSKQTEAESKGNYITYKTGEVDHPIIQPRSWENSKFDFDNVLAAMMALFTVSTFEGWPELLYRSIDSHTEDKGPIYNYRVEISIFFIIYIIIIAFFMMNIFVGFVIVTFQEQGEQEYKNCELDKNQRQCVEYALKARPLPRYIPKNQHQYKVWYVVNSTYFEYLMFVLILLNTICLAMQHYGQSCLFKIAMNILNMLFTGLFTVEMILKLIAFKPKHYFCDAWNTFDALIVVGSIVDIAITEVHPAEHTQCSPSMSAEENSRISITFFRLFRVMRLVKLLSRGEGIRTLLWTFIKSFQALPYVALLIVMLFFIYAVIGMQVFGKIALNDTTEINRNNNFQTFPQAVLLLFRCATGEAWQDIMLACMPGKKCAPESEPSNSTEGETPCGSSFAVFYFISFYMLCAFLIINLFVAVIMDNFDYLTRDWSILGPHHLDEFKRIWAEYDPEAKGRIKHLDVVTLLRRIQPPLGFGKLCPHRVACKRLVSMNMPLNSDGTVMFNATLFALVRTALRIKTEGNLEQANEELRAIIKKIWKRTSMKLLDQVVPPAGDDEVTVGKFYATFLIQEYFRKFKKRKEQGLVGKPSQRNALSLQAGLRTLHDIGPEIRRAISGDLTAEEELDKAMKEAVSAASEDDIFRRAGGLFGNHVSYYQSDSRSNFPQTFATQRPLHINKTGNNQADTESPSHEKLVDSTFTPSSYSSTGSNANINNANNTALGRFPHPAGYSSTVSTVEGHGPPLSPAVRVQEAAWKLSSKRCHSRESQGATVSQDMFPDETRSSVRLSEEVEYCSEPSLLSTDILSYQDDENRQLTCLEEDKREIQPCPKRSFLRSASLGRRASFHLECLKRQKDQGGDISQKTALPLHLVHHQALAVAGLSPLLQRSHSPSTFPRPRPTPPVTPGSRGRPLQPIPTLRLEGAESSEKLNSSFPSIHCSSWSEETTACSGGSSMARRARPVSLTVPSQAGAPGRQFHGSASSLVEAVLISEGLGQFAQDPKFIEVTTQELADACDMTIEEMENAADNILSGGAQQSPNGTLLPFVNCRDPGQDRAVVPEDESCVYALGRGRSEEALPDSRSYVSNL

[4] = target: T2, Gastrin/cholecystokinin type B receptor (Homo sapiens, UniProt P32239)
T2 sequence (P32239 whole entry): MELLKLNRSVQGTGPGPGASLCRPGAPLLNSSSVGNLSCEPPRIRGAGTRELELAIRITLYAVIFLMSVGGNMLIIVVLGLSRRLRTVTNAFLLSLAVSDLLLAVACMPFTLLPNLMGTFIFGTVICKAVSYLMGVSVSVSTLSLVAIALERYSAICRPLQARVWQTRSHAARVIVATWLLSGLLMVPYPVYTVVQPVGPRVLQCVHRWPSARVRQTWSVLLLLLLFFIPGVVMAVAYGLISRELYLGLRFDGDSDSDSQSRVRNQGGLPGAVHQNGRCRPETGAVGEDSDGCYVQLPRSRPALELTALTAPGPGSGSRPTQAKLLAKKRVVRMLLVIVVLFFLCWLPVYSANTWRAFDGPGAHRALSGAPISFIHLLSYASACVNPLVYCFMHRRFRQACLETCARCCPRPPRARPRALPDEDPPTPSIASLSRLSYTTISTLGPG

[5] = target: T3, D(1A) dopamine receptor (Homo sapiens, UniProt P21728); assay type: functional, cell-based
T3 sequence (P21728 whole entry): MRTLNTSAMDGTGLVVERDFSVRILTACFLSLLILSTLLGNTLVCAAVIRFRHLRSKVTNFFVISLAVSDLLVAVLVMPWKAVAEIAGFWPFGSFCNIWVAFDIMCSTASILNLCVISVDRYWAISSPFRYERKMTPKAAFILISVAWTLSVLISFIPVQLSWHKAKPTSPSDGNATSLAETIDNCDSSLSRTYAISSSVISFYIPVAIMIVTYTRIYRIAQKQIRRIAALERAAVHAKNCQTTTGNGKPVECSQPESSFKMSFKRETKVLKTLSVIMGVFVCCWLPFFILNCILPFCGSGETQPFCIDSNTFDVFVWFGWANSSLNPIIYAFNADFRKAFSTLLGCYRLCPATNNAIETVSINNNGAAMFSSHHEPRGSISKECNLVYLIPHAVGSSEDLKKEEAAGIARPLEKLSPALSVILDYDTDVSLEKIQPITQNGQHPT

[6] = target: T4, Estrogen receptor (Homo sapiens, UniProt P03372)
T4 sequence (P03372 whole entry): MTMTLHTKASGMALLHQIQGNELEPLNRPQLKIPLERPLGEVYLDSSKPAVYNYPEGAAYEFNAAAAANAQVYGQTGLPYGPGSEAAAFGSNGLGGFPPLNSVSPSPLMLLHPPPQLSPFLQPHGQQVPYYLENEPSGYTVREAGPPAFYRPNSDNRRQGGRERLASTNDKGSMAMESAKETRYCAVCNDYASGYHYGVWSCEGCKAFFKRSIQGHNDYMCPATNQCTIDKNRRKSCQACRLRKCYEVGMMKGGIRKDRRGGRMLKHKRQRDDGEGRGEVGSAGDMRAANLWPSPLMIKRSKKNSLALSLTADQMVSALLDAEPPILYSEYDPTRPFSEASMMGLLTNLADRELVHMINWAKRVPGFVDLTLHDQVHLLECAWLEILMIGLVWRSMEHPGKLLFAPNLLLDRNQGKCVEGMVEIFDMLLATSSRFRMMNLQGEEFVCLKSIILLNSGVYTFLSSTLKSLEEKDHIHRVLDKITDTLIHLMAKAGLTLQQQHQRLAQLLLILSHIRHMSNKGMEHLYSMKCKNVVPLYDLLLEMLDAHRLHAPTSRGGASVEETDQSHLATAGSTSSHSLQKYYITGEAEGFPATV

[7] = target: 5-hydroxytryptamine receptor 2B (Homo sapiens, UniProt P41595); assay type: functional, cell-based
Sequence of 5-hydroxytryptamine receptor 2B (P41595 whole entry): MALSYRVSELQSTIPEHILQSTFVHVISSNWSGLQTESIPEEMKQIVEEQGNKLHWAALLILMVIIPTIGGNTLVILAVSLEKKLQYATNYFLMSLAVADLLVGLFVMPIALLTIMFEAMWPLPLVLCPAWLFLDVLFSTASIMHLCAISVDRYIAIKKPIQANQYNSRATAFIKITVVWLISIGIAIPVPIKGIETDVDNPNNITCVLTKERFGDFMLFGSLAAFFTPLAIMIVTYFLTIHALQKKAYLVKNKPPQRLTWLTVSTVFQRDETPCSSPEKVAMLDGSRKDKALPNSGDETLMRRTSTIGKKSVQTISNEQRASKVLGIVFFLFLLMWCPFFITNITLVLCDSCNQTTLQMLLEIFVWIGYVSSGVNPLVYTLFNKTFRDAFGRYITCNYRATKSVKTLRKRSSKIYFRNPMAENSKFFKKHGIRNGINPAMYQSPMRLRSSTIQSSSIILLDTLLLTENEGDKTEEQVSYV

[8] = target: Kappa-type opioid receptor (Homo sapiens, UniProt P41145)
Sequence of Kappa-type opioid receptor (P41145 whole entry): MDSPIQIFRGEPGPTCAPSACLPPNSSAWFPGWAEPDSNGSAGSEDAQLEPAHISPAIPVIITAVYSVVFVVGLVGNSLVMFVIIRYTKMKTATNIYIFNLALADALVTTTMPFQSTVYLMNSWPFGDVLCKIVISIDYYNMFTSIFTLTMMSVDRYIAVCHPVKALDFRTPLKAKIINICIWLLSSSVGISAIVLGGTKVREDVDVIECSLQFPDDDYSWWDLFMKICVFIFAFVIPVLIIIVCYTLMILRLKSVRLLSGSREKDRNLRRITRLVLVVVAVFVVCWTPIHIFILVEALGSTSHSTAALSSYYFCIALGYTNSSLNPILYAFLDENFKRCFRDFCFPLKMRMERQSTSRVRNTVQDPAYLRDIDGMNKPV

[9] = target: Cannabinoid receptor 1 (Homo sapiens, UniProt P21554); assay type: functional, cell-based
Sequence of Cannabinoid receptor 1 (P21554 whole entry): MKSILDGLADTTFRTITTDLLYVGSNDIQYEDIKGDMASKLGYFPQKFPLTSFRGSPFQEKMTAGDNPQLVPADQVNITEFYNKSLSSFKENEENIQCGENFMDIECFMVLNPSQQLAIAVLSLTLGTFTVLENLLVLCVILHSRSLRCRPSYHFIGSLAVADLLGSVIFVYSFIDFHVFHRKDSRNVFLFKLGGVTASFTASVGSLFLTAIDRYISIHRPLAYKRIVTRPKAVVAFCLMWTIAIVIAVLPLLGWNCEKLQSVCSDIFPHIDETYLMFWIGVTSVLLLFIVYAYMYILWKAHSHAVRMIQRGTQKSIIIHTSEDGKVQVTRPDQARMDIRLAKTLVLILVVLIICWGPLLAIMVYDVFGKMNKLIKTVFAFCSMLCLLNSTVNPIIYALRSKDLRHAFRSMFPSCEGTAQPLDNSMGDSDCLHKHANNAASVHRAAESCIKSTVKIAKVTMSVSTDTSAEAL

[10] = target: T3, D(1A) dopamine receptor
[11] = target: T5, 5-hydroxytryptamine receptor 1A (Homo sapiens, UniProt P08908)
T5 sequence (P08908 whole entry): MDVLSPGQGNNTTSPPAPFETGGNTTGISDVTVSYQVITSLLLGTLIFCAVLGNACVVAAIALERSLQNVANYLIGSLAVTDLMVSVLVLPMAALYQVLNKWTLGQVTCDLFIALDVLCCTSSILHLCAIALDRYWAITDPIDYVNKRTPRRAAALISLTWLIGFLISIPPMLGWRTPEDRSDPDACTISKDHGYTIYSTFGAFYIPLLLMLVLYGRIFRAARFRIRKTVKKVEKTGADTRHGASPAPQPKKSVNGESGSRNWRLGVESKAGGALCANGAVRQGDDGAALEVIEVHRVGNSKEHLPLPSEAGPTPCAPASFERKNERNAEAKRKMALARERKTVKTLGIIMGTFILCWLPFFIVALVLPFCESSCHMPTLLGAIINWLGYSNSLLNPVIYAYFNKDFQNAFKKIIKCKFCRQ

[12] = target: Mu-type opioid receptor (Homo sapiens, UniProt P35372)
Sequence of Mu-type opioid receptor (P35372 whole entry): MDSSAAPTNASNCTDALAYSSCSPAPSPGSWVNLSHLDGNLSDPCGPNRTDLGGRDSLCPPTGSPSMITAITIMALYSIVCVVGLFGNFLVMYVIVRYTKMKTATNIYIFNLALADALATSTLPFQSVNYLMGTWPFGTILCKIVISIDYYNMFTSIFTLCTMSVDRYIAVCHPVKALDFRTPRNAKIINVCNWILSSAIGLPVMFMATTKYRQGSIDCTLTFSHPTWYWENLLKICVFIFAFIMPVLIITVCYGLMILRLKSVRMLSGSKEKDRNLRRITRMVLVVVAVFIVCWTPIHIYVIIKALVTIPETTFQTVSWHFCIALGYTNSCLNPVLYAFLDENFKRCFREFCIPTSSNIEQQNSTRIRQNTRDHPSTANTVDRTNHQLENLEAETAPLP

[13] = target: T6, Thromboxane A2 receptor (Homo sapiens, UniProt P21731); assay type: functional, cell-based
T6 sequence (P21731 whole entry): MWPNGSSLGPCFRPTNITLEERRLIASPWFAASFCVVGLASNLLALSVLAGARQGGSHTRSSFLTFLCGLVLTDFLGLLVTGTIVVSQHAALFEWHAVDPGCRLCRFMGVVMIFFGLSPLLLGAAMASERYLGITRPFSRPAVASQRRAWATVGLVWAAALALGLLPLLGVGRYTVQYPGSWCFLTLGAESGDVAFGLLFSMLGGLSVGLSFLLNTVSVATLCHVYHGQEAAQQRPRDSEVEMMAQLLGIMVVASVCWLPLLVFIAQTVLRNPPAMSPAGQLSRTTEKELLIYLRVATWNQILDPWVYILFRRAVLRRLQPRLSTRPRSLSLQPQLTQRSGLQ
Further: assay procedure not described here.

SMILES	AC50 [1]	AC50 [2]	AC50 [3]	AC50 [4]	AC50 [5]	AC50 [6]	AC50 [7]	AC50 [8]	AC50 [9]	AC50 [10]	AC50 [11]	AC50 [12]	AC50 [13]
C=CCNc1nc(NCC=C)nc(N2CCN(C(c3ccc(F)cc3)c3ccc(F)cc3)CC2)n1 [ALMITRINE]	> 30 µM	> 30 µM	> 30 µM	> 30 µM	> 30 µM	> 30 µM	> 30 µM	18 µM					
Cc1cccc(N2CC(CO)OC2=O)c1 (centres undefined) [TOLOXATONE]	> 30 µM		> 30 µM	> 30 µM	> 30 µM		> 30 µM	> 30 µM	> 30 µM				
CC(C(=O)O)c1ccc(-c2ccccc2)c(F)c1 (centres undefined) [FLURBIPROFEN]		> 10 µM	> 10 µM		> 10 µM	> 30 µM	> 10 µM	> 10 µM		> 30 µM	> 30 µM	> 30 µM	> 30 µM
CCC[C@H](NC(=O)[C@@H]1[C@H]2CCC[C@H]2CN1C(=O)[C@@H](NC(=O)[C@@H](NC(=O)c1cnccn1)C1CCCCC1)C(C)(C)C)C(=O)C(=O)NC1CC1	> 10 µM	> 10 µM	> 10 µM	> 30 µM		> 30 µM		> 10 µM					
CC(C)[C@H](N)C(=O)OCC(CO)OCn1cnc2c(=O)nc(N)[nH]c21 (some centres undefined) [VALGANCICLOVIR]	> 30 µM	> 30 µM	> 30 µM	> 30 µM	> 30 µM	> 30 µM	> 30 µM	> 30 µM					
CNCc1ccc(-c2[nH]c3cc(F)cc4c3c2CCNC4=O)cc1 [RUCAPARIB]		> 30 µM		> 30 µM		> 30 µM							
COc1cc(N)c(Cl)cc1C(=O)NC1CCN(Cc2ccccc2)CC1 [CLEBOPRIDE]	18 µM	> 30 µM	> 30 µM	> 30 µM		> 30 µM	> 30 µM	22 µM	> 30 µM				
CC1OC2(CS1)CN1CCC2CC1 (centres undefined) [CEVIMELINE]	> 30 µM	> 10 µM	> 10 µM		> 30 µM	> 10 µM	> 10 µM	> 10 µM					
Cc1noc(NS(=O)(=O)c2ccc(N)cc2)c1C [SULFISOXAZOLE]		> 10 µM	> 10 µM		> 10 µM	> 10 µM	> 10 µM	> 10 µM	> 30 µM				
Cc1cnc(C(=O)NCCc2ccc(S(=O)(=O)NC(=O)NC3CCCCC3)cc2)cn1 [GLIPIZIDE]		> 10 µM		> 30 µM		> 30 µM		> 10 µM			29.9 µM		> 30 µM
C[C@H](Cc1ccc(O)c(O)c1)[C@@H](C)Cc1ccc(O)c(O)c1 [MASOPROCOL]	8.1 µM	> 10 µM	> 10 µM		> 10 µM	0.749 µM	> 10 µM	15 µM	> 30 µM				
CCCN[C@H]1CCc2nc(N)sc2C1 [PRAMIPEXOLE]		> 30 µM	> 10 µM	> 30 µM			> 10 µM	> 10 µM	> 30 µM				
Clc1ccc(C(Cn2ccnc2)OCc2ccsc2Cl)c(Cl)c1 (centres undefined) [TIOCONAZOLE]	> 30 µM	10.6 µM	23 µM	> 30 µM	> 30 µM	> 10 µM	> 30 µM	1.8 µM					
CC(C)NCC(O)c1ccc(O)c(O)c1 (centres undefined) [ISOPROTERENOL]			> 10 µM	> 30 µM	> 30 µM		> 10 µM	> 10 µM	> 30 µM				
C[C@]12CCC(=O)C(O)=C1CC[C@@H]1[C@@H]2CC[C@]2(C)C(=O)CC[C@@H]12 [FORMESTANE]	> 30 µM	> 30 µM	> 30 µM	> 30 µM	> 30 µM	> 30 µM	> 30 µM		> 30 µM				
CCC1(c2ccccc2)CCC(=O)NC1=O (centres undefined) [GLUTETHIMIDE]	> 10 µM	> 10 µM	> 10 µM		> 10 µM	> 10 µM	> 10 µM	> 10 µM	> 30 µM				
Cc1cc2cc3c(C)cc(=O)oc3c(C)c2o1 [TRIOXSALEN]		> 10 µM	> 10 µM		> 10 µM	> 30 µM	> 10 µM	> 10 µM					
CC(C)COCC(CN(Cc1ccccc1)c1ccccc1)N1CCCC1 (centres undefined) [BEPRIDIL]	6.2 µM	> 30 µM	24 µM	> 30 µM	> 30 µM	> 30 µM	> 30 µM						
CCCCC1C(=O)N(c2ccccc2)N(c2ccccc2)C1=O [PHENYLBUTAZONE]		> 10 µM	> 10 µM	> 30 µM	> 10 µM	> 10 µM	> 10 µM	> 10 µM					
CC(C)(C)C(=O)OCC(=O)[C@H]1CC[C@H]2[C@@H]3CCC4=CC(=O)CC[C@]4(C)[C@H]3CC[C@]12C [DESOXYCORTICOSTERONE PIVALATE]	> 10 µM	> 10 µM	> 10 µM		> 10 µM	> 30 µM	> 10 µM	> 10 µM	> 30 µM				
O=C(O)c1cn(C2CC2)c2cc(N3CCNCC3)c(F)cc2c1=O [CIPROFLOXACIN]				> 30 µM		> 30 µM							> 30 µM
[H]/N=C(/N)N/C(=N/[H])NCCc1ccccc1 [PHENFORMIN]	15 µM	> 10 µM	> 30 µM	> 30 µM	> 30 µM	> 30 µM	> 30 µM	> 10 µM					
Nc1ncn([C@H]2C[C@H](O)[C@@H](CO)O2)c(=O)n1 [DECITABINE]	> 30 µM		> 30 µM	> 30 µM	> 30 µM		> 30 µM	> 30 µM					

Reference: ChEMBL document CHEMBL5291721, “A preclinical secondary pharmacology resource illuminates target-adverse drug reaction associations of marketed drugs” (Nat Commun, 2023)
